Data reported in PMC4418665, “Cyclization of the Urokinase Receptor-Derived Ser-Arg-Ser-Arg-Tyr Peptide Generates a Potent Inhibitor of Trans-Endothelial Migration of Monocytes” (PLoS ONE, 2015).
Peptide text beside a SMILES is read from it.

Tests used:
[1] = target: T1, FPR1 (Homo sapiens, UniProt P21462); experiment: Ligand binding assay, competition with FITC-fMLF at 4°C, THP-1 cells; design: host or cells: THP-1 human monocytic leukemia cells; details: excess (100 nM) unlabeled peptide 60 min at 4°C, then 10 nM FITC-fMLF 60 min at 4°C; triplicates
T1 sequence (P21462 1-350): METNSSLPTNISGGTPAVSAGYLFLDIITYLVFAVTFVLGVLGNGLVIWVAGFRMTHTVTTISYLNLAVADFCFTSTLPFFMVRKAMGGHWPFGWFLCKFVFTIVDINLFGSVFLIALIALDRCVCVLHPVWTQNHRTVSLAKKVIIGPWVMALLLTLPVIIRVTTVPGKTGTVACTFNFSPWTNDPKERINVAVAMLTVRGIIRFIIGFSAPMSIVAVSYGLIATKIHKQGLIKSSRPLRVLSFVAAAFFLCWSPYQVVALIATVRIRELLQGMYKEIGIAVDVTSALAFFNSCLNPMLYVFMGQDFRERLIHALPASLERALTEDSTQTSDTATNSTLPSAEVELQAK
Procedure: Once documented that both SRSRY and [SRSRY] peptides compete with fMLF for binding to FPR1, we investigated the effect of [SRSRY] on the motility of monocytes. Preliminarily, we assessed whether [SRSRY] is a ligand of FPR1 on monocyte cell surface. […] (Fig 3A). When binding experiments were performed at 37°C, FPR1 appeared mainly localized within the cytoplasm, adjacent but outside the nucleus of THP-1 cells.
Fig 3 The peptide [SRSRY] binds to FPR1 on THP-1 cell surface. A. THP-1 cells (1.5 x10^6 cells/sample) were pre-incubated with diluents (None), 100 nM fMLF, 100 nM SRSRY or 100 nM [SRSRY] peptides for 60 minutes at 4°C, then exposed to 10 nM N-formyl-Nle-Leu-Phe-Nle-Tyr-Lys-fluorescein (FITC-fMLF) for additional 60 minutes at 4°C. Fluorimetric measurement of cell-associated fluorescence was assed using 485 nm excitation and 535 nm emission filters. Data are expressed as a percentage of the fluorescence associated to THP-1 cells exposed to FITC-fMLF alone (None = 100%) and represent a mean ± SD from triplicates. *Statistical significance (t-test) against None with p<0.001. B. THP-1 cells incubated with diluents (None), 100 nM fMLF, 100 nM SRSRY or 100 nM [SRSRY] peptides for 30 minutes at 37°C and exposed to 10 nM FITC-fMLF for additional 30 minutes at 37°C. Scale bar: 5 μm. Original magnifications: 630x. […]

[2] = target: T1, FPR1; experiment: Ligand binding assay, competition with FITC-fMLF at 4°C, RBL-2H3/ETFR cells; design: expressed in transfected cells; details: 100 nM peptide pre-incubated 60 min at 4°C, then 10 nM FITC-fMLF 60 min at 4°C; cell-associated fluorescence; triplicates
Procedure: We have previously documented that SRSRY competes with the bacterial-derived N-formyl-methionyl-leucyl-phenylalanine peptide (fMLF) for binding to FPR type 1 (FPR1) and that both SRSRY and fMLF promote cell migration by triggering FPR1 internalization. […] Quantification of cell-associated fluorescence was assessed by reading cell lysates with a fluorescence plate reader. RBL-2H3 cells lack FPR1, thus they display very low uptake that was not saturable with unlabeled fMLF (Fig 2A). […] To evaluate the effect of [SRSRY] on agonist-dependent FPR1 internalization, binding experiments were performed at 37°C. […] Thus, we assessed whether [SRSRY] elicits effects on fMLF-directed cell migration. RBL-2H3/ETFR cell migration toward 10 nM fMLF was monitored in real-time for 4 hours as Cell Index changes due to the adhesion of migrating cells to microelectrodes using the xCELLigence RTCA technology as previously described. […]
Fig 2 Both linear and cyclic SRSRY peptides bind to FPR1. […] Fluorimetric measurement of cell-associated fluorescence was assed using 485 nm excitation and 535 nm emission filters. Data are expressed as a percentage of the fluorescence associated to RBL-2H3 cells exposed to FITC-fMLF alone (CTL = 100%) and represent a mean ± SD from triplicates. *Statistical significance (t-test) against None with p<0.001. […] Cell migration of RBL-2H3/ETFR cells monitored by the xCELLigence system. […]

Question: For `N=C(N)NCCC[C@H](NC(=O)[C@H](CO)NC(=O)[C@H](CCCNC(=N)N)NC(=O)[C@@H](N)CO)C(=O)N[C@@H](Cc1ccc(O)cc1)C(N)=O` [SRSRY, H-Ser-Arg-Ser-Arg-Tyr-NH2] (H-SRSRY-NH2), which “binding of FITC-fMLF to THP-1 cells” value [1] is on record?
Answer: The value was “dramatically reduced”.

Question: What about the “binding of FITC-fMLF to RBL-2H3/ETFR cells” value [2] of the same molecule?
Answer: Its value is “reduced to the basal level”.

Question: How did the “binding of FITC-fMLF to THP-1 cells” value [1] turn out when `N=C(N)NCCC[C@@H]1NC(=O)[C@H](CO)NC(=O)[C@H](Cc2ccc(O)cc2)NC(=O)[C@H](CCCNC(=N)N)NC(=O)[C@H](CO)NC1=O` [[SRSRY], [Ser-Arg-Ser-Arg-Tyr]] (cyclo(RSRYS)) was run?
Answer: Its value is “dramatically reduced”.

Question: What about the “binding of FITC-fMLF to RBL-2H3/ETFR cells” value [2] of the same molecule?
Answer: The value was “inhibits binding of fluorescent agonist to RBL-2H3/ETFR cells to a similar extent as compared to fMLF or SRSRY”.
